The results in this text go back to publication PMC11280065, “^64Cu^2+ Complexes of Tripodal Amine Ligands’ In Vivo Tumor and Liver Uptakes and Intracellular Cu Distribution in the Extrahepatic Bile Duct Carcinoma Cell Line TFK-1: A Basic Comparative Study” (Pharmaceuticals, 2024).

Data set [1] deals with mice bearing TFK-1-RFP cells. The note with it: mean ± SD.
For data set [2], the system named is TFK-1 cells. The data set can be described thus: Micro-PIXE analysis of intracellular Cu distribution. Type of data set: cell-based, human. The conditions noted are these: compared among the three Cu2+ complexes and Cu2+ ions, no significant differences. From the text: A positive correlation was observed between in vitro whole-cell uptake and in vivo tumor uptake (R = 0.992, p = 0.00772) (Figure S2). Similarly, we observed a consistent correlation between in vitro nuclear uptake and in vivo tumor uptake (417.6 counts ± 150.02 for Cu^2+-Tren, 203.00 counts ± 25.13 for Cu^2+-Dien, 94.82 counts ± 48.07 for Cu^2+-TPMA, and 35.57 counts ± 25.02 for Cu^2+ ions) (p < 0.05).
The human extrahepatic bile duct carcinoma cell line TFK-1 was obtained from the RIKEN Bioresource Research Center (Ibaraki, Japan) and immediately expanded and frozen in our laboratory. […] Exponentially growing cells were detached from plates using trypsin (0.5 w/v% Trypsin-5.3 mmol/L EDTA·4Na Solution without Phenol Red (×10), Fujifilm Wako Pure Chemical Corporation, Osaka, Japan), and the number of viable cells was determined using the trypan blue dye (Bio-Rad, Hercules CA, USA) exclusion method.
A micro-PIXE analysis was carried out at the QST Electrostatic Accelerator Facility. […] Cells were subsequently stained with DAPI (4′,6-diamidino-2-phenylindole; Bio-Rad, Hercules, CA, USA) for nuclear localization and observed under a fluorescence microscope (BZ-X810, Keyence, Osaka, Japan). […] Distributions of Cu, P, K, Ca, Al, Fe, and S in each group were determined using Kα lines. […] Nuclei localization was determined via fluorescence microscope images of DAPI staining. […]

Structures are written as SMILES.

In data set [1] (urine collected during the 2.5 h post-administration, intravenous, TFK-1-RFP-xenografted mice), `NCCNCCN.[Cl-].[Cl-].[Cu+2]` [Cu^2+-Dien] displayed a urinary excretion of 1.68 ± 0.46 %ID.
Consider `[Cl-].[Cl-].[Cu+2].c1ccc(CN(Cc2ccccn2)Cc2ccccn2)nc1` [Cu^2+-TPMA], for which the tumor uptake in data set [1] (TFK-1-RFP-xenografted SCID beige mice, 2.5 h after intravenous injection of 1.85 MBq, n = 3–4/group) stood at 7.56 ± 0.41 %ID/g.
For the molecule `NCCN(CCN)CCN.[Cl-].[Cl-].[Cu+2]` [Cu^2+-Tren], the “percentage counts of nuclear uptake/whole-cell uptake” value in data set [2] was “highest average value”.
